Among the test systems are ACHN renal; BT-549 breast; CAKI-1 renal; HL-60(TB) leukemia; HS 578T breast; MCF7 breast; MDA-MB-435; MOLT-4 leukemia; RPMI-8226 leukemia; UACC-257 melanoma.
Common to all, as to assay: growth of human tumour cells (NCI), 48 h

21 molecules from PubChem BioAssay (NCI) can be followed below.

Several values for one entry are separate records, joined by “and”; a condition that tells them apart may be missing. Identical values can stand only once.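 Where inhibition never reached the appropriate level, the endpoint shown equals the highest concentration tested. Otherwise, values were interpolated linearly from a five-concentration, 48-hour dose response in 96-well plates. Abbreviation: GI50, concentration required for 50% inhibition of growth. TGI marks complete inhibition of growth.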

With `Oc1cc(Br)cc2cc(Br)cnc12`, the TGI is 47.4 µM in the experiment on ACHN renal; above 100 µM in the experiment with BT-549 breast; 42.6 µM with CAKI-1 renal; 0.654 µM in the experiment with HL-60(TB) leukemia; 63.8 µM with HS 578T breast; above 100 µM in the experiment on MCF7 breast. Further, the TGI with MDA-MB-435 is above 100 µM; in the experiment on MOLT-4 leukemia it was 16.1 µM; with RPMI-8226 leukemia, 30.2 µM; in the experiment on UACC-257 melanoma it was above 100 µM.
As to `COc1ccc(N2C(=O)CSC2c2cc(OC)c(OC)c(OC)c2)cc1` (configuration not stated), the TGI in the experiment on ACHN renal was 40.9 µM; in the experiment on BT-549 breast, 52.1 µM; in the experiment with CAKI-1 renal, 62.7 µM; with HL-60(TB) leukemia, 69.8 µM; with HS 578T breast, above 100 µM; with MCF7 breast it was above 100 µM. The TGI in the experiment on MDA-MB-435 was 85.2 µM; in the experiment with MOLT-4 leukemia, above 100 µM; in the experiment with RPMI-8226 leukemia, above 100 µM; with UACC-257 melanoma, 28.9 µM.
`Cc1cccc(/C=N/NC(=S)NC(C)(C)C)n1`: the TGI with ACHN renal, with BT-549 breast, with CAKI-1 renal, in the experiment with HL-60(TB) leukemia, in the experiment on HS 578T breast and in the experiment on MCF7 breast was above 100 µM each time. The TGI in the experiment on MDA-MB-435, in the experiment on MOLT-4 leukemia, in the experiment with RPMI-8226 leukemia and with UACC-257 melanoma was above 100 µM throughout.
For `Cc1cc2nnn(C3CCCO3)c2cc1C` (configuration not stated), the TGI in the experiment with BT-549 breast, in the experiment on CAKI-1 renal, in the experiment on HL-60(TB) leukemia, in the experiment with HS 578T breast, in the experiment on MCF7 breast and with MDA-MB-435 was above 100 µM throughout. The TGI with MOLT-4 leukemia and in the experiment with UACC-257 melanoma was above 100 µM in each case.
As to `O=C(O)C1(Cc2ccc3c(c2)CCC3)Cc2cc3c(cc2C1)CCC3`, the TGI with ACHN renal, in the experiment with BT-549 breast, with HL-60(TB) leukemia, in the experiment with HS 578T breast, in the experiment with MCF7 breast and in the experiment on MDA-MB-435 was above 100 µM throughout. Further, the TGI with MOLT-4 leukemia and in the experiment on RPMI-8226 leukemia was above 100 µM in each case.
On to `C=CC(=O)N1C/C(=C\c2ccc(F)cc2)C(=O)/C(=C/c2ccc(F)cc2)C1`, for which the TGI with ACHN renal is 0.715 µM; with BT-549 breast it was 1.2 µM; in the experiment on CAKI-1 renal, 1.7 µM; in the experiment on HL-60(TB) leukemia, above 100 µM; in the experiment on HS 578T breast, 0.876 µM; in the experiment with MCF7 breast, 1.42 µM. The figures for the TGI in the experiment on MDA-MB-435 and with UACC-257 melanoma were 1.29 µM and 6.05 µM, respectively.
Turning to `Cc1cn(C2CC(O)C(Cn3cc(Cn4nc(Br)c(=O)[nH]c4=O)nn3)O2)c(=O)[nH]c1=O` (configuration not stated), the TGI with ACHN renal, with BT-549 breast, in the experiment on CAKI-1 renal, in the experiment on HS 578T breast, with MCF7 breast and in the experiment with MDA-MB-435 was above 100 µM throughout. Further, the TGI with MOLT-4 leukemia, in the experiment with RPMI-8226 leukemia and in the experiment on UACC-257 melanoma was above 100 µM throughout.
On to `CCn1c2ccccc2c2cc(NC(=O)c3c(C)[nH]c(=O)[nH]c3=S)ccc21`, for which the TGI in the experiment with BT-549 breast is above 100 µM; in the experiment on CAKI-1 renal, above 100 µM; in the experiment with HL-60(TB) leukemia, above 100 µM; in the experiment with HS 578T breast it was above 100 µM; in the experiment with MCF7 breast, above 100 µM; with MDA-MB-435, 84 µM. Moreover, the TGI with MOLT-4 leukemia, in the experiment with RPMI-8226 leukemia and with UACC-257 melanoma was above 100 µM each time.
Consider `O=c1oc2ccccc2cc1-c1nc2ccccc2s1`, for which the TGI in the experiment with ACHN renal was above 20.1 µM; with BT-549 breast it was 46.4 µM; in the experiment with CAKI-1 renal, 15.6 µM; in the experiment on HL-60(TB) leukemia, above 100 µM; in the experiment on HS 578T breast, 20.4 µM; in the experiment on MCF7 breast, 6.53 µM. The values for the TGI in the experiment with MDA-MB-435 and in the experiment on RPMI-8226 leukemia were 18.1 µM and above 85 µM, respectively.
For the molecule `O=C1/C(=C/c2ccc(Cl)c(Cl)c2)CN(C(=O)CCN2CCOCC2)C/C1=C\c1ccc(Cl)c(Cl)c1`, the TGI with BT-549 breast was 0.0487 µM; with CAKI-1 renal it was 3.4 µM and 3.53 µM and 2.03 µM; with HL-60(TB) leukemia it was 1.1 µM and 0.632 µM; in the experiment on HS 578T breast it was above 10 µM; in the experiment on MCF7 breast, 0.159 µM; in the experiment with MDA-MB-435 it was 0.0309 µM. Moreover, the GI50 in the experiment on CAKI-1 renal was 0.579 µM; with HL-60(TB) leukemia it was 0.362 µM and 0.277 µM; in the experiment with MOLT-4 leukemia, 0.196 µM.
On to `COC(=O)C1CC(C=O)=C(SC)N1` (configuration not stated), for which the TGI in the experiment on ACHN renal, with BT-549 breast, in the experiment on CAKI-1 renal, in the experiment on HS 578T breast, in the experiment on MCF7 breast and in the experiment with MDA-MB-435 was above 50 µM each time. The TGI in the experiment on MOLT-4 leukemia, in the experiment with RPMI-8226 leukemia and in the experiment with UACC-257 melanoma was above 50 µM each time.
Consider `CCCCC[C@@H]1OC(=O)[C@@]2(CC3c4ccccc4C2c2ccccc23)[C@H]1C(=O)OC`, for which the TGI was above 100 µM with ACHN renal; above 100 µM in the experiment on BT-549 breast; above 100 µM with CAKI-1 renal; 33.1 µM with HL-60(TB) leukemia; above 100 µM with HS 578T breast; above 100 µM with MCF7 breast. The results for the TGI in the experiment on MDA-MB-435, in the experiment with RPMI-8226 leukemia and with UACC-257 melanoma were above 100 µM, 54.3 µM and 86.4 µM, respectively.
As for `C=C1C(=O)O[C@H]2[C@@H](O)[C@H](C)CCC/C(C)=C/CC[C@@]3(C)O[C@@H]3C[C@@H]12`, the TGI in the experiment with ACHN renal was 6.16 µM; in the experiment with BT-549 breast it was 14.5 µM; in the experiment on CAKI-1 renal it was 6.9 µM; in the experiment with HL-60(TB) leukemia it was above 27.4 µM; in the experiment on HS 578T breast it was above 100 µM; in the experiment on MCF7 breast it was 36.4 µM. The TGI is 29.5 µM in the experiment on MDA-MB-435, 25.7 µM in the experiment with RPMI-8226 leukemia and 22.4 µM with UACC-257 melanoma.
Consider `CC[N+]1(C)CCC(O)(/C=C/c2ccc(Cl)c(Cl)c2)C(C(=O)/C=C/c2ccc(Cl)c(Cl)c2)C1` (configuration not stated), for which the TGI with ACHN renal is 4.15 µM; in the experiment with BT-549 breast, 7.44 µM; with CAKI-1 renal, 12.7 µM; in the experiment on HS 578T breast, 7.66 µM; in the experiment with MCF7 breast, 6.52 µM; with MDA-MB-435, 5.01 µM. For the same molecule, the TGI stood at 5.17 µM in the experiment on MOLT-4 leukemia, 5.7 µM in the experiment with RPMI-8226 leukemia and 5.96 µM with UACC-257 melanoma.
As for `C[C@@H](CC(O)C(O)C(C)(C)O)C1CCC23CC12CCC1[C@@]2(C)CCC(=O)C(C)(C)C2CC(OC2OC(CO)C(O)C(O)C2O)[C@]13C` (some centres not stated), the TGI in the experiment on ACHN renal, in the experiment with BT-549 breast, in the experiment with CAKI-1 renal, in the experiment on HL-60(TB) leukemia, with HS 578T breast and with MCF7 breast was above 10 µM in each case. For the same molecule, the TGI in the experiment with MDA-MB-435, with MOLT-4 leukemia and in the experiment on RPMI-8226 leukemia was above 10 µM throughout.
On to `O=[N+]([O-])c1ccc(-c2nc3ccccc3o2)cc1`, for which the TGI in the experiment on ACHN renal, in the experiment with BT-549 breast, in the experiment on CAKI-1 renal, in the experiment with HS 578T breast, in the experiment on MCF7 breast and in the experiment on MDA-MB-435 was above 100 µM in each case. Moreover, the TGI in the experiment on MOLT-4 leukemia, in the experiment on RPMI-8226 leukemia and in the experiment with UACC-257 melanoma was above 100 µM throughout.
For the molecule `O=C(n1c(=O)n(-c2ccc([N+](=O)[O-])cc2)c(=O)n1C(=O)C(Cl)(Cl)Cl)C(Cl)(Cl)Cl`, the TGI with ACHN renal, with BT-549 breast, in the experiment with CAKI-1 renal, in the experiment on HL-60(TB) leukemia, in the experiment with HS 578T breast and in the experiment with MCF7 breast was above 100 µM throughout. For the same molecule, the TGI with MDA-MB-435, with RPMI-8226 leukemia and in the experiment on UACC-257 melanoma was above 100 µM each time.
For `CC1=C(C(=O)OC(C)C)C(c2cccc([N+](=O)[O-])c2)C(C(=O)OC(CO[N+](=O)[O-])CO[N+](=O)[O-])=C(C)N1` (configuration not stated), the TGI in the experiment on ACHN renal was above 100 µM; with BT-549 breast, 14.7 µM; in the experiment with CAKI-1 renal, above 100 µM; in the experiment with HS 578T breast, above 41.9 µM; in the experiment with MCF7 breast, 1.12 µM; in the experiment with MDA-MB-435 it was 15.3 µM. The TGI in the experiment with MOLT-4 leukemia was determined as 3.76 µM; in the experiment with RPMI-8226 leukemia it was 3.6 µM; with UACC-257 melanoma it was 13.3 µM.
Consider `Cc1ccc(Oc2cc(C)ccc2P(=O)(O)O)cc1`, for which the TGI in the experiment on BT-549 breast, with CAKI-1 renal, with HL-60(TB) leukemia, in the experiment with HS 578T breast, in the experiment on MCF7 breast and in the experiment with MDA-MB-435 was above 100 µM each time. Also, the TGI in the experiment with MOLT-4 leukemia, in the experiment on RPMI-8226 leukemia and in the experiment with UACC-257 melanoma was above 100 µM each time.
For `Nc1ncnc2c(C3OC(CO)C(O)C3O)c[nH]c12` (configuration not stated), the TGI was 0.237 µM and 0.297 µM in the experiment on BT-549 breast; 0.402 µM in the experiment with CAKI-1 renal; 0.0807 µM with MCF7 breast; 0.182 µM and 0.125 µM in the experiment on MDA-MB-435; 0.276 µM and 0.382 µM in the experiment with UACC-257 melanoma. In addition, the results for the GI50 with HL-60(TB) leukemia, with HS 578T breast and with UACC-257 melanoma were 0.000721 µM, 0.0247 µM and below 0.0155 µM, respectively.
With `CCCS(=O)OC1C(C2COC(C)(C)O2)OC2OC(C)(C)OC21` (configuration not stated), the TGI in the experiment with ACHN renal was 26.9 µM; in the experiment on BT-549 breast it was 24.5 µM; in the experiment with CAKI-1 renal, 28 µM; in the experiment with HS 578T breast, above 100 µM; with MCF7 breast, 27.3 µM; in the experiment on MDA-MB-435, 23.4 µM. The results for the TGI with MOLT-4 leukemia, in the experiment with RPMI-8226 leukemia and in the experiment on UACC-257 melanoma were 6.57 µM, 12.8 µM and 28.2 µM, respectively.
